Organism: Rattus norvegicus
Assay: DrugMatrix - Regimen: Daily Repeat
Type: toxicity, organism-based, Sprague-Dawley
Design: regimen Daily Repeat, gender Male, age 6-8 weeks
Conditions: in vivo, po, route oral GAVAGE, […]; for ABSOLUTE BASOPHIL / ABSOLUTE EOSINOPHIL / ABSOLUTE LYMPHOCYTE / ABSOLUTE MONOCYTE / ABSOLUTE SEGMENTED NEUTROPHIL / BASOPHIL / EOSINOPHIL / ERYTHROCYTE COUNT / HEMATOCRIT / HEMOGLOBIN / LEUKOCYTE COUNT / LYMPHOCYTE / MEAN CORPUSCULAR HEMOGLOBIN / MEAN CORPUSCULAR HEMOGLOBIN CONCENTRATION / MEAN CORPUSCULAR VOLUME / MONOCYTE / NEUTROPHIL / NUCLEATED RED BLOOD CELLS / PLATELET COUNT: tissue Blood; for ALANINE AMINOTRANSFERASE / ALBUMIN / ALKALINE PHOSPHATASE / ASPARTATE AMINOTRANSFERASE / BLOOD UREA NITROGEN / CARBON DIOXIDE / CHLORIDE / CHOLESTEROL / CREATINE PHOSPHOKINASE / CREATININE / GLUCOSE / LACTATE DEHYDROGENASE / LIPASE / PHOSPHORUS / POTASSIUM / SODIUM / TOTAL BILIRUBIN / TOTAL PROTEIN / URIC ACID: tissue Plasma
[1] = 0 mg/kg, 72 h, dose level Control, time 3 day
[2] = 0 mg/kg, 120 h, dose level Control, time 5 day
[3] = 5 mg/kg, 72 h, dose level Low, time 3 day

## CC(C)n1c(/C=C/C(O)CC(O)CC(=O)O)c(-c2ccc(F)cc2)c2ccccc21 (centres undefined) [FLUVASTATIN]
[1]
  ABSOLUTE BASOPHIL: 0 CELLS/uL
  ABSOLUTE EOSINOPHIL: 33 CELLS/uL
  ABSOLUTE LYMPHOCYTE: 9048.5 CELLS/uL
  ABSOLUTE MONOCYTE: 80.17 CELLS/uL
  ABSOLUTE SEGMENTED NEUTROPHIL: 1521.67 CELLS/uL
  BASOPHIL: 0%
  EOSINOPHIL: 0.17%
  ERYTHROCYTE COUNT: 5.46 x10E6/uL
  HEMATOCRIT: 32.87%
  HEMOGLOBIN: 12.95 G/DL
  LEUKOCYTE COUNT: 10.68 x10E3/uL
  LYMPHOCYTE: 86.67%
  MEAN CORPUSCULAR HEMOGLOBIN: 23.72 pg
  MEAN CORPUSCULAR HEMOGLOBIN CONCENTRATION: 39.4 G/DL
  MEAN CORPUSCULAR VOLUME: 60.18 fL
  MONOCYTE: 0.83%
  NEUTROPHIL: 12.33%
  NUCLEATED RED BLOOD CELLS: 0 /100WBC
  PLATELET COUNT: 1211.33 x10E3/uL
  ALANINE AMINOTRANSFERASE: 76.67 u/L
  ALBUMIN: 3.93 G/DL
  ALKALINE PHOSPHATASE: 317.17 u/L
  ASPARTATE AMINOTRANSFERASE: 81.17 u/L
  BLOOD UREA NITROGEN: 12.33 mg/dL
  CARBON DIOXIDE: 31.17 mmol/L
  CHLORIDE: 98.33 MEQ/L
  CHOLESTEROL: 67.17 mg/dL
  CREATINE PHOSPHOKINASE: 312.33 u/L
  CREATININE: 0.19 mg/dL
  GLUCOSE: 165.5 mg/dL
  LACTATE DEHYDROGENASE: 94.5 u/L
  LIPASE: 9.83 u/L
  PHOSPHORUS: 10.1 mg/dL
  POTASSIUM: 5.16 MEQ/L
  SODIUM: 143.02 MEQ/L
  TOTAL BILIRUBIN: 0.2 mg/dL
  TOTAL PROTEIN: 5.88 G/DL
  URIC ACID: 0.68 mg/dL
[2]
  ABSOLUTE BASOPHIL: 0 CELLS/uL
  ABSOLUTE EOSINOPHIL: 14.67 CELLS/uL
  ABSOLUTE LYMPHOCYTE: 9629.83 CELLS/uL
  ABSOLUTE MONOCYTE: 72.5 CELLS/uL
  ABSOLUTE SEGMENTED NEUTROPHIL: 1049.67 CELLS/uL
  BASOPHIL: 0%
  EOSINOPHIL: 0.17%
  ERYTHROCYTE COUNT: 5.36 x10E6/uL
  HEMATOCRIT: 33.82%
  HEMOGLOBIN: 13.48 G/DL
  LEUKOCYTE COUNT: 10.77 x10E3/uL
  LYMPHOCYTE: 90.17%
  MEAN CORPUSCULAR HEMOGLOBIN: 25.28 pg
  MEAN CORPUSCULAR HEMOGLOBIN CONCENTRATION: 39.92 G/DL
  MEAN CORPUSCULAR VOLUME: 63.3 fL
  MONOCYTE: 0.67%
  NEUTROPHIL: 9%
  NUCLEATED RED BLOOD CELLS: 0.17 /100WBC
  PLATELET COUNT: 1275.33 x10E3/uL
  ALANINE AMINOTRANSFERASE: 93.67 u/L
  ALBUMIN: 4.17 G/DL
  ALKALINE PHOSPHATASE: 402.5 u/L
  ASPARTATE AMINOTRANSFERASE: 122.83 u/L
  BLOOD UREA NITROGEN: 14.75 mg/dL
  CARBON DIOXIDE: 26.4 mmol/L
  CHLORIDE: 98.5 MEQ/L
  CHOLESTEROL: 57.5 mg/dL
  CREATINE PHOSPHOKINASE: 305.17 u/L
  CREATININE: 0.21 mg/dL
  GLUCOSE: 142 mg/dL
  LACTATE DEHYDROGENASE: 83.5 u/L
  LIPASE: 85.83 u/L
  PHOSPHORUS: 8.18 mg/dL
  POTASSIUM: 5.46 MEQ/L
  SODIUM: 144 MEQ/L
  TOTAL BILIRUBIN: 0.25 mg/dL
  TOTAL PROTEIN: 5.63 G/DL
  URIC ACID: 0.8 mg/dL
[3]
  ABSOLUTE BASOPHIL: 0 CELLS/uL
  ABSOLUTE EOSINOPHIL: 0 CELLS/uL
  ABSOLUTE LYMPHOCYTE: 7777.67 CELLS/uL
  ABSOLUTE MONOCYTE: 91 CELLS/uL
  ABSOLUTE SEGMENTED NEUTROPHIL: 864.67 CELLS/uL
  BASOPHIL: 0%
  EOSINOPHIL: 0%
  ERYTHROCYTE COUNT: 5.27 x10E6/uL
  HEMATOCRIT: 32.97%
  HEMOGLOBIN: 13.1 G/DL
  LEUKOCYTE COUNT: 8.73 x10E3/uL
  LYMPHOCYTE: 89%
  MEAN CORPUSCULAR HEMOGLOBIN: 24.87 pg
  MEAN CORPUSCULAR HEMOGLOBIN CONCENTRATION: 39.77 G/DL
  MEAN CORPUSCULAR VOLUME: 62.47 fL
  MONOCYTE: 1%
  NEUTROPHIL: 10%
  NUCLEATED RED BLOOD CELLS: 0 /100WBC
  PLATELET COUNT: 1163 x10E3/uL
  ALANINE AMINOTRANSFERASE: 67 u/L
  ALBUMIN: 3.93 G/DL
  ALKALINE PHOSPHATASE: 305.67 u/L
  ASPARTATE AMINOTRANSFERASE: 95.33 u/L
  BLOOD UREA NITROGEN: 12 mg/dL
  CARBON DIOXIDE: 30.67 mmol/L
  CHLORIDE: 98 MEQ/L
  CHOLESTEROL: 76 mg/dL
  CREATINE PHOSPHOKINASE: 453.67 u/L
  CREATININE: 0.18 mg/dL
  GLUCOSE: 193.33 mg/dL
  LACTATE DEHYDROGENASE: 209.33 u/L
  LIPASE: 9.67 u/L
  PHOSPHORUS: 10.07 mg/dL
  POTASSIUM: 5.48 MEQ/L
  SODIUM: 142.9 MEQ/L
  TOTAL BILIRUBIN: 0.2 mg/dL
  TOTAL PROTEIN: 5.8 G/DL
  URIC ACID: 0.63 mg/dL

From ChEMBL document CHEMBL3885881, “DrugMatrix”
